Reference: patent US12594296B2, “Methods for treatment or prevention of damage resulting from radiation, trauma or shock” (priority 2012, dated 2026)

Assays:
[1] = test system: mice exposed to ionizing radiation; assay: Total body irradiation study: survival and body weight (Example 1); type: in vivo; settings: for Percent Dead Per Group: 50 mg/kg p.o. q.d. + 200 ppm in drinking water Days 1-18
Description: Male mice were exposed to an acute irradiation dose on Day 0 of 0, 12.5, or 13.0 Gy at a rate of 1 Gy/min with lead shielding to the left hind limb. Starting 24 hours after irradiation, the mice were untreated or treated with PAAG or vehicle control, given with 50 mg/kg via oral gavage daily and dosed ad libitum in the drinking water (200 ppm PAAG) from days 1 to 18. The treatment groups are summarized on TABLE 1.
The total body irradiation study was performed as described above with control vehicle or PAAG (86 kDa and 30% functionalization) administered to the mice at the indicated final concentrations. […] As shown in the Kaplan-Meier Survival Plot in FIG. 1, there was no mortality in animals that were not irradiated. […] In fact, 88% of the treated animals survived while only 19% of the untreated animals survived. […] The comparative mortality data from these experiments is tabulated on TABLE 2.

[2] = test system: irradiated left buccal cheek pouch (oral mucositis); assay: Mucosal radiation dose ranging study, oral mucositis (Example 2); type: in vivo, Syrian Golden hamsters; settings: 40 Gy to cheek pouch; 50, 100, 250 and 500 μg/mL t.i.d. into the pouch
Description: In a dose ranging study, an acute dose of irradiation of 40 Gy directed to the left buccal cheek pouch of Syrian Golden hamsters and the hamsters were treated t.i.d. with 50, 100, 250 and 500 μg/mL PAAG or vehicle control directly inserted into the pouch. Mean % weight change and mucositis score were recorded. The mucosal radiation dose ranging study was performed as described above with PAAG (86 kDa and 30% functionalization) added to the indicated final concentrations. […] A comparison of the mean percent weight gain for […] dosed with vehicle control and four dosing concentrations of PAAG is shown in FIG. 4. […] The healing effect of PAAG is shown in FIG. 6, which depicts the comparison of the percentage of animals with a mucositis score of 3 or higher on a given day post irradiation for a vehicle control and three doses of PAAG.

[3] = test system: irradiated left buccal cheek pouch (oral mucositis); assay: Oral mucositis scheduling study (Example 3); type: in vivo, hamsters; settings: 200 ppm thrice daily Day -1 to 14 or Day 10 to 36, relative to Day -7 to 36 or Day -1 to 36
Description: In a scheduling study, an acute dose of irradiation of 40 Gy directed to the left buccal cheek pouch and the hamsters were treated t.i.d. with 200 μg/mL PAAG or vehicle control directly inserted into the pouch. Schedules included PAAG treatment Day—7 to 36, Day—1 to 36, Day—1 to 14, and Day 10-36. Mean % weight change and mucositis score were recorded. Oral mucositis scheduling study was performed as described above with PAAG (86 kDa and 30% functionalization) added to the indicated final concentrations. The mean mucositis scores for a vehicle control and 200 ppm PAAG administered thrice daily from Day—7 to 36, Day—1 to 36, Day—1 to 14, or Day 10 to 36 is shown in FIG. 7. […] dosed with 200 ppm PAAG administered thrice daily from Day—1 to 14 or from Day 10 to 36 have a reduced mean mucositis score relative to mice dosed with 200 ppm PAAG thrice daily from Day—7 to 36 or from Day—1 to 36.

[4] = test system: IL-8 production in U937 cells; assay: IL-8 production response in LPS-stimulated U937 cells (IL-8 ELISA); type: cell-based, human; settings: 1 h pretreatment, rinsed, LPS 10 ng/ml 4 h; relative to control or lactoferrin pretreatment
[5] = test system: MRSA strain MW2 (ATCC BAA-1707); assay: Nasal epithelium/MRSA binding assay (RPMI-2650 cells); type: cell-based; settings: pretreatment 200 or 500 ppm for 5 and 60 minutes; compared to PBS and media controls
Burkholderia cepacia = Burkholderia cepacia macrophage uptake (U937); type: cell-based; settings: pretreatment of U937 with 200 μg/mL; relative to untreated cells
Description: Burkholderia cepacia macrophage uptake. The myeloid cell line (U937) were grown in RPMI 1640 supplemented with 10% (v/v) fetal bovine serum and 2 mm L-glutamine. Cells were seeded at 6×10^5 cells per well in 24 well plates in RPMI 1640 additionally supplemented with 0.1 ug PMA for 48 hours to activate U937 cells to be macrophage-like. Cell media was replaced with cell media without fetal bovine serum and PMA for at least 2 hours. Treatments consisted of either PAAG (200 ug/ml) treated on cells for one hour and being rinsed with D-PBS twice before inoculation or with PAAG treatment with no rinse. Upon completion of pretreatment with PAAG, cells were inoculated with Burkholderia cepacia in growth phase with an MOI of 1:10 for 45 min. After inoculation period media is supplemented with 50 ug/ml of gentamicin for another 45 min. Cells were then rinsed twice with D-PBS before being lysed using 0.5% Triton X-100 in D-PBS and serially diluted, plated and counted for bacterial uptake.
Pretreatment and binding studies were performed as described above for Caco2 cells with Acinetobacter attachment and Burkholderia cepacia macrophage uptake studies, with the PAAG (86 kDa and 30% functionalization) added to the indicated final concentrations.

[6] = test system: mice exposed to ionizing radiation; assay: Survival after three doses of total body radiation (Example 11); type: in vivo, CB57BL/6 mice; settings: for mortality, vehicle versus PAAG: 50 mg/kg once a day oral gavage
Description: Male CB57BL/6 mice of the same weight and age were subjected to radiation doses of 12.5, 13.5 and 14.0 Gy. Animals were given the same dose of PAAG (50 mg/kg once a day) by oral gavage as in the previous study. Eighteen (18) animals were studied in each of […]: irradiated control and active PAAG at each dose. Mortality data is shown in FIG. 30 for three doses of total body radiation treated with vehicle or PAAG given via oral gavage daily.

[7] = Irradiation biomarkers in plasma (pro-calcitonin, citrulline) (Example 10)

Question: For “poly (acetyl, arginyl) glucosamine [PAAG]”, which “survival difference between treated and untreated groups” value ([1]; 12.5Gy of radiation, p=0.081) is on record?
Answer: No statistical difference

Question: What about the “Percent Dead Per Group” value ([1]; 12.5 Gy, n=16) of the same substance?
Answer: 31.25%

Question: What about the “No. of Death” value ([1]; 12.5 Gy, Day 5, euthanized, n=16) of the same substance?
Answer: 1

Question: And the “No. of Death” value ([1]; 12.5 Gy, Day 6, euthanized, n=16)?
Answer: 1

Question: And the “No. of Death” value ([1]; 12.5 Gy, Day 7, euthanized, n=16)?
Answer: 3

Question: And the “Percent Dead Per Group” value ([1]; 13.0 Gy, based on n=15)?
Answer: 13.33^¶ Percent

Question: What about the “No. of Death” value ([1]; 13.0 Gy, Day 6, found dead, n=15) of the same substance?
Answer: 1

Question: What about the “No. of Death” value ([1]; 13.0 Gy, Day 18, euthanized, n=15) of the same substance?
Answer: 1

Question: What about the “survival difference vehicle versus PAAG” value ([1]; LD 80 dose (13.0 Gy), p<0.0001) of the same substance?
Answer: very significant

Question: And the treated animals survived ([1]; LD 80 dose of radiation (13.0 Gy), untreated 19%)?
Answer: 88%

Question: And the “mean percent weight change” value ([1]; compared with untreated animals, FIG. 2)?
Answer: no significant effect

Question: What about the “Percent Dead Per Group” value ([1]; no radiation, n=5) of the same substance?
Answer: 0%

Question: And the “No. of Death” value ([1]; no radiation, n=5)?
Answer: 0

Question: What about the “course of oral mucositis” value [2] of the same substance?
Answer: modulated the course of oral mucositis

Question: What about the mean mucositis score [3] of the same substance?
Answer: reduced

Question: And the “LPS activated IL-8 response” value [4]?
Answer: reduced

Question: What about the “binding of MRSA to nasal epithelial cells” value [5] of the same substance?
Answer: decreases

Question: What about the “percentage of bacterial invasion by Burkholderia cepacia” value (Burkholderia cepacia) of the same substance?
Answer: decreases

Question: What about the “mortality, vehicle versus PAAG” value ([6]; 12.5 Gy) of the same substance?
Answer: numerically significant

Question: And the “mortality, vehicle versus PAAG” value ([6]; 13.5 Gy)?
Answer: not statistically different

Question: And the “mortality, vehicle versus PAAG” value ([6]; 14.0 Gy)?
Answer: not statistically different

Question: What about the mortality ([6]; after LD70 ionizing radiation) of the same substance?
Answer: reduced

Question: And the adverse effects ([6]; any dose)?
Answer: No adverse effects

Question: What about the “citrulline reduction versus untreated irradiated animals” value ([7]; 13 Gy) of the same substance?
Answer: statistically less

Question: And the “circulating plasma levels of PCT relative to controls” value ([7]; 13 Gy, oral gavage once a day)?
Answer: reduced

Question: And the “circulating amounts of citrulline relative to control” value ([7]; day 3 and 4 after lethal ionizing radiation)?
Answer: increased
